In brackets after ≈: the same amount, converted by molar mass.
Experiments:
[1] = tested on: mixed culture of nerve cells-glial cells; test: Protecting effect on NMDA-induced nerve cell death (LDH release); assay type: cell-based, ICR mouse; conditions: 100 μM NMDA, LDH release after 24 hours
Procedure, shortened: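 Embryonic day-14 ICR mouse cortical neurons seeded on cortical glia, Ara-C-treated, then exposed at day 12–15 for 20 min to 100 μM NMDA with compound at 1 or 2 μg/mL. LDH released 24 h later measured colorimetrically as a cell-death index.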

SH-SY5Y cells = test: Inhibitory effect on ZnSO4-mediated cytotoxicity (MTT assay); assay type: cell-based, humans; conditions: compound 50 μg/ml; 600 μM zinc sulfate, 24 hours
Method: SH-SY5Y cells were cultured with 3×10^4 cell concentration in 96 well plates, and the compound (50 μg/ml) was treated. After 30 minutes, 600 μM of zinc sulfate was treated to induce toxicity for 24 hours and survival rate of cells was measured by MTT assay.

[2] = tested on: superoxide dismutase (SOD); test: Increase of superoxide dismutase (SOD) activity in mouse brain cells; assay type: cell-based; conditions: 100 μg/ml
Method: (§1) ROS inhibitory effect of compounds was represented to the dose suppressing 50% of production of reactive oxygen compared to control. […] The activity of superoxide dismutase (SOD) was measured by using a kit acquired in Sigma.

[3] = tested on: pentylentetrazole (PTZ)-induced convulsion; test: Anti-convulsant effect, pentylentetrazole (PTZ) test; assay type: in vivo; conditions: 10 mg/kg intraperitoneally, PTZ 80 mg/kg subcutaneously; for mortality rate / Induction percentage of convulsion: (animals/total); for mortality rate: negative control 70(17/23); for Induction percentage of convulsion: negative control 100(23/23); for Initiation time of convulsion: negative control 5.0 ± 0.7; for Duration of convulsion: negative control 46.7 ± 3.3
Procedure, shortened: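 Compound was given intraperitoneally at 10 mg/kg before PTZ challenge. The read-outs were time to convulsion onset, time until convulsions fully disappeared, and mortality.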

thoracic aorta of rats = test: Relaxing effect on thoracic aorta contracted by phenylephrine (organ bath); set-up: species or system rats of SD species; conditions: Rattus norvegicus; 67 μg/mL; phenylephrine 0.5 μM; mean n = 3; read-out: Relaxation percentage
Procedure, shortened: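 Thoracic aortic rings (2 mm) from ether-anesthetized male SD rats (250-300 g) were mounted in Krebs buffer gassed with 95% O2/5% CO2 and equilibrated at 1.0 g basal tension for 90 min. After stable contraction with phenylephrine (0.5 μM), compounds were added and relaxation recorded.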

mouse brain cells = test: Inhibitory effect on ROS production in brain cells (DCF-DA, NMDA-induced); assay type: cell-based; conditions: 24 h; dose suppressing 50% of production of reactive oxygen compared to control; mouse brain cells; read-out: ROS inhibitory effect ID50
Method: Oxidative stress was measured to test inhibitory effects on the production of reactive oxygen species (ROS) by using DCF-DA, which is a fluorescent probe. Brain cells were obtained from brain cortex of mouse to prepare cell solution with 2×10^6 cells/ml. Each brain cell was treated with 11 μM of DCF-DA followed by reaction in 37° C., 5% CO2 incubator for an hour. After washing twice, Compound 3 was treated with a concentration of 125 μg/ml and 250 μg/ml. At the same time, 300 μM of NMDA was treated and it was incubated in 37° C., 5% CO2 incubator for 24 hours.
as §1

[4] = tested on: middle cerebral artery occlusion (MCAO) model; test: Anti-stroke effect in middle cerebral artery occlusion (MCAO) model, oral administration before inducing stroke; assay type: in vivo, rats of SD species; conditions: 2 g/kg po; for Infarcted volume (Mean ± standard deviation): negative control 0.45 ± 0.03
[5] = treatment time 0 (right before inducing ischemic stroke)
[6] = treatment time 1 (an hour before inducing ischemic stroke)

Structure (SMILES) | Inhibitory effect of cell death by NMDA-induced excitable neurotoxicity ([1]; 1 μg/ml compound) [%] | Inhibitory effect of cell death by NMDA-induced excitable neurotoxicity ([1]; 2 μg/ml compound) [%] | inhibitory percentage, zinc-induced toxicity (SH-SY5Y cells) [%] | Increase of SOD activity, compared to control [2] | mortality rate [3] | Induction percentage of convulsion [3] | Initiation time of convulsion [3] [min] | Duration of convulsion [3] [min] | inhibition at 67 µg/mL (thoracic aorta of rats) [%] | IC50 (mouse brain cells) [mg/L] | Inhibitory percentage compared to negative control [4, 5] [%] | Infarcted volume (Mean ± standard deviation) [4, 5] [cm^3] | Inhibitory percentage compared to negative control [4, 6] [%] | Infarcted volume (Mean ± standard deviation) [4, 6] [cm^3]
O=c1[nH]c2ccccc2c(=O)n1CCCNCCCCNCCCn1c(=O)[nH]c2ccccc2c1=O [Compound 2, 3-(3-{4-[3-(2,4-dioxo-1,4-dihydro-2H-quinazolin-3-yl)propylamino]butylamino}propyl)-1H-quinazoline-2,4-dione] | 11.0 | 0.7 | 21.7 ± 4.1 | 2.8 ± 4.0 | 67(4/6) % | 100(6/6) % | 12.9 ± 3.7 | 35.7 ± 7.1 | 10.9 |  |  |  |  | 
CCCCCCN(CCCCN(CCCn1c(=O)[nH]c2ccccc2c1=O)C(=O)OC(C)(C)C)CCCn1c(=O)[nH]c2ccccc2c1=O [Compound 30, [3-(2,4-dioxo-1,4-dihydro-2H-quinazolin-3-yl)propyl]-(4-{[3-(2,4-dioxo-1,4-dihydro-2H-quinazolin-3-yl)propyl]hexylamino}butyl)carbamic acid tert-butyl ester] | 38.3 | 44.4 |  | 6.2 ± 6.2 | 83(5/6) % | 83(5/6) % | 15.9 ± 9.0 | 44.1 ± 9.0 | 40.4 | 79.5 ± 15.7 (≈ 117 µM) |  |  |  | 
CS(=O)(=O)N(CCCCNCCCn1c(=O)[nH]c2ccccc2c1=O)CCCn1c(=O)[nH]c2ccccc2c1=O [Compound 12, N-[3-(2,4-dioxo-1,4-dihydro-2H-quinazolin-3-yl)propyl]-N-{4-[3-(2,4-dioxo-1,4-dihydro-2H-quinazolin-3-yl)propylamino]butyl}methansulfonamide] | 5.7 | 2.6 | 12.7 ± 4.3 | 2.8 ± 1.8 | 67(4/6) % | 100(6/6) % | 13.7 ± 6.2 | 39.3 ± 8.8 | 10.9 |  |  |  |  | 
C[N+](C)(C)CCOP(=O)(O)OP(=O)([O-])OC[C@H]1O[C@@H](n2ccc(N)nc2=O)[C@H](O)[C@@H]1O [Citicoline, reference compound] |  |  |  |  |  |  |  |  |  |  | 37.8 | 0.28 ± 0.04 | 51.1 | 0.22 ± 0.03
O=c1[nH]c2ccccc2c(=O)n1CCNCCCNCCn1c(=O)[nH]c2ccccc2c1=O [Compound 23, 3-(2-{3-[2-(2,4-dioxo-1,4-dihydro-2H-quinazolin-3-yl)ethylamino]propylamino}ethyl)-1H-quinazoline-2,4-dione] | 36.0 | 32.2 |  | 4.0 ± 10 | 33(2/6) % | 100(6/6) % | 9.3 ± 2.5 | 28.7 ± 8.6 | 20.4 | 55.5 ± 27.2 (≈ 123 µM) |  |  |  | 
NCCCNCCCCNCCCn1c(=O)[nH]c2ccccc2c1=O [Compound 1, 3-{3-[4-(3-aminopropylamino)butylamino]propyl}-1H-quinazoline-2,4-dione] | 16.1 | 2.4 |  | 0.7 ± 5.6 | 67(4/6) % | 83(5/6) % | 16.1 ± 9.0 | 43.9 ± 9.0 | 12.8 | 73 ± 14.1 (≈ 210 µM) |  |  |  | 
CC(=O)N(CCCCN(CCCn1c(=O)[nH]c2ccccc2c1=O)Cc1ccccc1)CCCn1c(=O)[nH]c2ccccc2c1=O [Compound 13, N-(4-{benzyl-[3-(2,4-dioxo-1,4-dihydro-2H-quinazolin-3-yl)propyl]amino}butyl)-N-[3-(2,4-dioxo-1,4-dihydro-2H-quinazolin-3-yl)propyl]acetamide] | 17.4 | 23.0 |  | 7.6 ± 2.9 |  |  |  |  | 9.3 | 87.3 ± 10.9 (≈ 140 µM) |  |  |  | 
O=c1[nH]c2ccccc2c(=O)n1CCCNCC=CCNCCCn1c(=O)[nH]c2ccccc2c1=O [Compound 25, 3-(3-{4-[3-(2,4-dioxo-1,4-dihydro-2H-quinazolin-3-yl)propylamino]-2-butenylamino}propyl)-1H-quinazoline-2,4-dione] | 35.2 | 28.8 |  | 1.6 ± 9.3 | 83(5/6) % | 100(6/6) % | 6.2 ± 1.5 | 48.3 ± 5.9 | 20 | 104 ± 32.5 (≈ 212 µM) |  |  |  | 
O=C(OCc1ccccc1)N(CCCCNCCCn1c(=O)[nH]c2ccccc2c1=O)CCCn1c(=O)[nH]c2ccccc2c1=O [Compound 39, [3-(2,4-dioxo-1,4-dihydro-2H-quinazolin-3-yl)propyl]-{4-[3-(2,4-dioxo-1,4-dihydro-2H-quinazolin-3-yl)propylamino]butyl}carbamic acid benzyl ester] | 30.8 | 17.1 |  | 19.0 ± 6.3 | 0(0/6) % | 100(6/6) % | 9.5 ± 2.8 | 19.8 ± 6.4 | 54.8 | 32.3 ± 20 (≈ 51.5 µM) |  |  |  | 
Cc1ccc(S(=O)(=O)N(CCCCN(CCCn2c(=O)[nH]c3ccccc3c2=O)S(=O)(=O)c2ccc(C)cc2)CCCn2c(=O)[nH]c3ccccc3c2=O)cc1 [Compound 41, N-[3-(2,4-dioxo-1,4-dihydro-2H-quinazolin-3-yl)propyl]-N-(4-{[3-(2,4-dioxo-1,4-dihydro-2H-quinazolin-3-yl)propyl]-4-methylbenzenesulfonylamino}butyl)-4-methylbenzenesulfonamide] |  | 28.5 |  | 2.0 ± 0.9 |  |  |  |  | 7.1 | 27.2 ± 18.6 (≈ 34 µM) |  |  |  | 
O=C1CCC(=O)N1CCCNCCCCNCCCn1c(=O)[nH]c2ccccc2c1=O [Compound 42, 3-(3-{4-[3-(2,5-dioxo-pyrrolidine-1-yl)propylamino]butylamino}propyl)-1H-quinazoline-2,4-dione] | 24.6 | 21.8 |  | 1.6 ± 2.6 | 17(1/6) % | 100(6/6) % | 9.8 ± 4.1 | 18.2 ± 8.6 | 14.6 | 138 ± 21 (≈ 321 µM) |  |  |  | 
COCC(=O)N(CCCCNCCCn1c(=O)[nH]c2ccccc2c1=O)CCCn1c(=O)[nH]c2ccccc2c1=O [Compound 38, N-[3-(2,4-dioxo-1,4-dihydro-2H-quinazolin-3-yl)propyl]-N-{4-[3-(2,4-dioxo-1,4-dihydro-2H-quinazolin-3-yl)propylamino]butyl}-2-methoxyacetamide] | 33.5 | 13.5 |  | 3.2 ± 4.9 | 17(1/6) % | 83(5/6) % | 16.0 ± 9.0 | 11.2 ± 7.3 | 88.2 | 136 ± 11 (≈ 241 µM) |  |  |  | 

Reference: patent publication US8404696B2, “Quinazoline-2,4-dione derivative, and medical compositions for the prophylaxis and treatment of cranial nerve disease containing the same” (Shin Poong Pharmaceutical Co., Ltd., priority 2008, dated 2013)
